Data on 18 compounds can be found in PubChem BioAssay (NCI).

The structures appear in SMILES notation.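 1) Cells in 96-well plates. 2) Compound, 48 h, 5 concentrations. 3) Linear interpolation between surrounding doses. 4) Unreached endpoint = highest concentration. GI50 marks 50% less growth. At the TGI there is no net growth.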

Holding throughout (assay): NCI-60 cell line screen, 48 h
Assay [1] deals with HCC-2998 colon.
Assay [2] has as its system NCI-H23 lung.
In assay [3] the test system is SF-268 CNS.
Assay [4] has as its system SK-OV-3 ovarian.
In assay [5] the test system is SR leukemia.
Assay [6] relates to SW-620 colon.
The test system of assay [7] is UO-31 renal.
For assay [8], the system named is HS 578T breast.
Assay [9] relates to NCI/ADR-RES ovarian.
Assay [10] deals with T-47D breast.

With `COC(=O)C1=CC(=O)C(C(=O)Nc2ccc(OC)cc2)C(c2ccccc2)O1` (centres undefined), the TGI in [1] was greater than 78.7 µM; in assay [2] it was 46.6 µM; in assay [3] it was 37.3 µM; in [4], 53.5 µM; in assay [5], greater than 100 µM; in assay [6] it was greater than 100 µM. Moreover, the TGI in [7] was 90.6 µM.
Regarding `O=c1[nH]nc(-c2ccccc2)c(-c2ccccc2)c1-n1nc(-c2ccccc2)c2ccccc2c1=O`, the TGI in assay [1], in [2], in [3], in [4], in assay [5] and in assay [6] was greater than 100 µM in each case. In assay [7], the TGI was greater than 100 µM.
As to `[N-]=[N+]=Nc1ccc(S(=O)(=O)Oc2cc(OS(=O)(=O)c3ccc(N=[N+]=[N-])cc3)cc(OS(=O)(=O)c3ccc(N=[N+]=[N-])cc3)c2)cc1`, the TGI is greater than 100 µM in assay [1]; greater than 100 µM in assay [2]; greater than 100 µM in assay [3]; greater than 100 µM in [5]; greater than 10 µM in assay [6]; greater than 100 µM in [7].
Turning to `COC1CCC(=C2C(=O)OC(C)(C)OC2=O)N1` (centres undefined), the TGI in assay [1], in [2], in [3], in assay [4], in [6] and in assay [7] was greater than 100 µM in each case.
With `COC(=O)C1Cc2c([nH]c3ccccc23)[C@H](CC(C)C)N1` (some centres undefined), the TGI in [1], in assay [2], in assay [3], in [4], in assay [5] and in [6] was greater than 100 µM each time. The TGI in assay [7] was greater than 100 µM.
Regarding `CC(=O)OC1COC(N2C(=O)C(=O)c3c(C)cc(Cl)nc32)C(OC(C)=O)C1OC(C)=O` (centres undefined), the TGI in [2], in assay [3], in assay [5], in assay [6] and in [7] was greater than 100 µM each time.
As to `CC(=O)NNc1nc(C)c(C(/C=C/c2ccc(/C=C/C(=N\NC(=O)c3ccncc3)c3sc(NNC(C)=O)nc3C)cc2)=N/NC(=O)c2ccncc2)s1`, the TGI in [1], in assay [2], in assay [3], in [4], in assay [6] and in assay [7] was greater than 100 µM throughout.
On to `CCCCNC(=S)Nn1c(-c2ccccc2)nc2ccccc2c1=O`, for which the TGI in assay [2], in assay [3], in assay [4], in [6] and in [7] was greater than 100 µM throughout.
`COc1ccc(CN(O)C2C(CO)OC(n3cc(I)c(=O)[nH]c3=O)C2O)cc1` (centres undefined): the TGI in assay [1], in [2], in [3], in [4], in assay [5] and in assay [6] was greater than 100 µM throughout. The compound further yielded a TGI in assay [7] greater than 100 µM.
For `CC(=O)NC1(C)CCC(C(C)(C)NC(C)=O)CC1` (centres undefined), the TGI in assay [1], in assay [8], in assay [2], in [9], in assay [3] and in assay [4] was greater than 100 µM each time. The TGI in assay [5], in [6] and in assay [7] was greater than 100 µM throughout.
With `CC(=O)Oc1c(-c2ccccc2)[nH]c2cc([N+](=O)[O-])c(/C(Cl)=C/c3ccccc3)cc12`, the TGI in assay [2] was 11.6 µM; in assay [3] it was greater than 100 µM; in assay [4], 83.9 µM; in assay [5] it was 27.4 µM; in assay [6] it was 29.3 µM; in [7], 27.6 µM.
On to `C[N+](C)(C)CC(=O)N/N=C(/C=C/c1ccccc1)CC1OC(=O)c2ccccc21` (centres undefined), for which the TGI is greater than 100 µM in assay [1]; greater than 10 µM in [2]; greater than 100 µM in [3]; greater than 100 µM in [4]; greater than 100 µM in assay [6]; greater than 100 µM in [7].
On to `O=C1CCCC1C(=O)Nc1ccc2ccccc2c1` (centres undefined), for which the TGI in [1], in assay [2], in assay [9], in assay [3], in assay [4] and in assay [5] was greater than 100 µM each time. For the same compound, the TGI in [6], in assay [10] and in assay [7] was greater than 100 µM each time.
For the compound `COC(=O)C1=C(O)C(O)=C(C(=O)OC)CC1`, the TGI in [1], in assay [2], in [3], in assay [4], in [5] and in [6] was greater than 100 µM each time. In assay [7], this compound gave a TGI greater than 100 µM.
Take `CC(C)c1ccc2c(c1)CCC1C(C)(C)[C@@H](O)CC[C@]21C` (some centres undefined): the TGI in [1] was 58.1 µM; in assay [2], 93 µM; in assay [3], greater than 100 µM; in [4], greater than 100 µM; in assay [5], 33.4 µM; in [7], greater than 100 µM.
Take `COc1ccc(NC(=O)CC/C(CC(=O)c2ccco2)=N/Nc2ccc([N+](=O)[O-])cc2[N+](=O)[O-])cc1`: the TGI in assay [1] is greater than 100 µM; in [2], greater than 100 µM; in assay [3], greater than 100 µM; in assay [4], greater than 100 µM; in [5] it was 64.4 µM; in [6] it was greater than 100 µM. Also, the TGI in assay [7] is greater than 100 µM.
Regarding `CC/C(=C(\c1ccccc1)c1ccc(OCCN(C)C)cc1)c1ccccc1`, the GI50 in assay [1] was 0.878 µM; in [2], 3.68 µM; in assay [9], 2.86 µM; in assay [5], 1.82 µM; in assay [6], 2.95 µM; in [10] it was 0.805 µM. In addition, the GI50 in assay [7] was 5.73 µM.
Turning to `CC(C)NC(=O)OCc1nnn2c1C(OC(=O)NC(C)C)CC2` (centres undefined), the TGI in assay [1], in [2], in assay [4], in assay [5], in [6] and in [7] was greater than 100 µM in each case.
